Values joined by “and” are separate entries in the source; they are usually repeats but may differ in a detail not shown here. Equal values may be shown once. Inconclusive results and toxic doses are left out. No stated cut-off is given here; in the data, active means T/C of 150% or more; inactive means T/C below 125%.
System: L1210 leukemia ip in BDF1 mice, survival T/C
Experiment: NCI In Vivo Anticancer Drug Screen. Data for tumor model L1210 Leukemia (intraperitoneal) in B6D2F1 (BDF1) mice
Conditions: endpoint: mean survival time, higher = longer survival
Procedure, shortened: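 Transplantable tumor model; survival measured in treated vs vehicle control mice. Value = treated/control.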

[1] = dose: 75.0 mg/kg/injection, schedule: Q01DX001 (ip), vehicle: saline
[2] = dose: 150.0 mg/kg/injection, schedule: Q01DX001 (ip), vehicle: saline
[3] = dose: 100.0 mg/kg/injection, schedule: Q01DX001 (ip), vehicle: saline
[4] = dose: 200.0 mg/kg/injection, schedule: Q01DX001 (ip), vehicle: saline
[5] = dose: 100.0 mg/kg/injection, schedule: Q04DX003 (ip), vehicle: Klucel (hydroxypropylcellulose) (HPC)
[6] = dose: 100.0 mg/kg/injection, schedule: Q04DX003 (ip), vehicle: saline
[7] = dose: 200.0 mg/kg/injection, schedule: Q04DX003 (ip), vehicle: Klucel (hydroxypropylcellulose) (HPC)
[8] = dose: 200.0 mg/kg/injection, schedule: Q04DX003 (ip), vehicle: saline
[9] = dose: 400.0 mg/kg/injection, schedule: Q04DX003 (ip), vehicle: Klucel (hydroxypropylcellulose) (HPC)
[10] = dose: 400.0 mg/kg/injection, schedule: Q04DX003 (ip), vehicle: saline
[11] = dose: 100.0 mg/kg/injection, schedule: Q01DX001 (ip), vehicle: other

Measured: T/C

C[n+]1cc(C#N)cc(C#N)c1
inactive: [1] 90 % of control | [2] 108 % of control

Cc1cc(F)ccc1[As](=O)(O)O
inactive: dose: 25.0 mg/kg/injection, schedule: Q04DX003 (ip), vehicle: saline with Tween-80 101 % of control

CC1(C)CCCC(OC(=O)c2ccc([N+](=O)[O-])cc2)C1 (stereo unspecified)
inactive: dose: 100.0 mg/kg/injection, schedule: Q01DX001 (ip), vehicle: carboxymethylcellulose (CMC) 93 % of control | dose: 200.0 mg/kg/injection, schedule: Q01DX001 (ip), vehicle: carboxymethylcellulose (CMC) 96 % of control | dose: 400.0 mg/kg/injection, schedule: Q01DX001 (ip), vehicle: carboxymethylcellulose (CMC) 102 % of control

CN(C)N=Nc1ccccc1C(=O)NNC(N)=S
inactive: dose: 18.75 mg/kg/injection, schedule: Q01DX009 (ip), vehicle: Klucel (hydroxypropylcellulose) (HPC) 109 % of control | dose: 37.5 mg/kg/injection, schedule: Q01DX009 (ip), vehicle: Klucel (hydroxypropylcellulose) (HPC) 116 % of control | dose: 75.0 mg/kg/injection, schedule: Q01DX009 (ip), vehicle: Klucel (hydroxypropylcellulose) (HPC) 89 % of control

CCOc1ccc(C(=O)CCN2CCOCC2)cc1
inactive: [3] 100 % of control | [4] 118 % of control

CN(C)Cc1cccc(-c2ccccc2)c1O
inactive: dose: 100.0 mg/kg/injection, schedule: Q01DX009 (ip), vehicle: saline 107 % of control | [5] 95 % of control | [6] 100 % of control | dose: 200.0 mg/kg/injection, schedule: Q01DX009 (ip), vehicle: saline 107 % of control | [7] 98 % of control | [8] 100 % of control | dose: 400.0 mg/kg/injection, schedule: Q01DX009 (ip), vehicle: saline 103 % of control | [9] 98 % of control | [10] 100 % of control

O=C(N/N=C/c1ccco1)c1ccccc1
inactive: dose: 50.0 mg/kg/injection, schedule: Q01DX009 (ip), vehicle: saline with Tween-80 94 % of control and 103 % of control | dose: 100.0 mg/kg/injection, schedule: Q01DX001 (ip), vehicle: saline with Tween-80 106 % of control | dose: 100.0 mg/kg/injection, schedule: Q01DX009 (ip), vehicle: saline with Tween-80 100 % of control and 103 % of control | dose: 100.0 mg/kg/injection, schedule: Q04DX002 (ip), vehicle: saline with Tween-80 96 % of control | dose: 100.0 mg/kg/injection, schedule: Q04DX003 (ip), vehicle: saline with Tween-80 98 % of control | dose: 200.0 mg/kg/injection, schedule: Q01DX001 (ip), vehicle: saline with Tween-80 101 % of control | dose: 200.0 mg/kg/injection, schedule: Q01DX009 (ip), vehicle: saline with Tween-80 103 % of control and 87 % of control | dose: 200.0 mg/kg/injection, schedule: Q04DX002 (ip), vehicle: saline with Tween-80 97 % of control | dose: 200.0 mg/kg/injection, schedule: Q04DX003 (ip), vehicle: saline with Tween-80 105 % of control | dose: 400.0 mg/kg/injection, schedule: Q01DX001 (ip), vehicle: saline with Tween-80 114 % of control | dose: 400.0 mg/kg/injection, schedule: Q04DX002 (ip), vehicle: saline with Tween-80 110 % of control | dose: 400.0 mg/kg/injection, schedule: Q04DX003 (ip), vehicle: saline with Tween-80 103 % of control

Nc1nc(=O)n(C2OC(CO)C(O)C2O)c2scnc12 (stereo unspecified)
inactive: dose: 50.0 mg/kg/injection, schedule: Q01DX005 (ip), vehicle: saline 107 % of control | dose: 100.0 mg/kg/injection, schedule: Q01DX005 (ip), vehicle: saline 107 % of control

O=C(NC1C=CCCC1)NC1C=CCCC1 (stereo unspecified)
inactive: dose: 50.0 mg/kg/injection, schedule: Q01DX001 (ip), vehicle: other 88 % of control | [11] 94 % of control | dose: 200.0 mg/kg/injection, schedule: Q01DX001 (ip), vehicle: other 97 % of control | dose: 400.0 mg/kg/injection, schedule: Q01DX001 (ip), vehicle: other 94 % of control

CCOC(=O)C1C(CCC#N)C(=O)CCC1(C#N)c1ccccc1 (stereo unspecified)
inactive: dose: 100.0 mg/kg/injection, schedule: Q04DX003 (ip), vehicle: acetone 98 % of control | dose: 200.0 mg/kg/injection, schedule: Q04DX003 (ip), vehicle: acetone 95 % of control | dose: 400.0 mg/kg/injection, schedule: Q04DX003 (ip), vehicle: acetone 98 % of control

CCOC(=O)N=C=S
inactive: [6] 95 % of control | [8] 103 % of control | [10] 95 % of control

NC(=O)COc1ncc(Cl)cc1Cl
inactive: dose: 100.0 mg/kg/injection, schedule: Q04DX002 (ip), vehicle: Klucel (hydroxypropylcellulose) (HPC) 96 % of control | dose: 200.0 mg/kg/injection, schedule: Q04DX002 (ip), vehicle: Klucel (hydroxypropylcellulose) (HPC) 101 % of control | dose: 400.0 mg/kg/injection, schedule: Q04DX002 (ip), vehicle: Klucel (hydroxypropylcellulose) (HPC) 104 % of control

c1nc(SCC2CO2)c2ncn(CC3CO3)c2n1 (stereo unspecified)
inactive: [3] 107 % of control | [4] 101 % of control | dose: 400.0 mg/kg/injection, schedule: Q01DX001 (ip), vehicle: saline 97 % of control

CCOC(=O)C(C(=O)OCC)N1C(=O)c2ccccc2C1=O
inactive: dose: 100.0 mg/kg/injection, schedule: Q01DX009 (ip), vehicle: Klucel (hydroxypropylcellulose) (HPC) 100 % of control | [5] 106 % of control and 102 % of control | dose: 200.0 mg/kg/injection, schedule: Q01DX009 (ip), vehicle: Klucel (hydroxypropylcellulose) (HPC) 102 % of control | [7] 105 % of control and 104 % of control | dose: 400.0 mg/kg/injection, schedule: Q01DX009 (ip), vehicle: Klucel (hydroxypropylcellulose) (HPC) 102 % of control | [9] 101 % of control and 100 % of control

C1=C(c2ccc3ccccc3c2)Nc2ccccc2S1
inactive: dose: 100.0 mg/kg/injection, schedule: Q04DX002 (ip), vehicle: gum acacia 96 % of control | dose: 200.0 mg/kg/injection, schedule: Q04DX002 (ip), vehicle: gum acacia 96 % of control | dose: 400.0 mg/kg/injection, schedule: Q04DX002 (ip), vehicle: gum acacia 88 % of control

IP(c1ccccc1)(c1ccccc1)(c1ccccc1)N1C2CCCCC21 (stereo unspecified)
inactive: dose: 0.15 mg/kg/injection, schedule: Q01DX009 (ip), vehicle: acetone 107 % of control | dose: 0.31 mg/kg/injection, schedule: Q01DX009 (ip), vehicle: acetone 115 % of control | dose: 0.62 mg/kg/injection, schedule: Q01DX009 (ip), vehicle: acetone 115 % of control | dose: 0.62 mg/kg/injection, schedule: Q01DX009 (ip), vehicle: saline 112 % of control | dose: 0.62 mg/kg/injection, schedule: Q04DX003 (ip), vehicle: saline 113 % of control | dose: 1.2 mg/kg/injection, schedule: Q01DX001 (ip), vehicle: acetone 114 % of control | dose: 1.25 mg/kg/injection, schedule: Q01DX009 (ip), vehicle: saline 104 % of control | dose: 1.25 mg/kg/injection, schedule: Q04DX003 (ip), vehicle: saline 93 % of control | dose: 2.5 mg/kg/injection, schedule: Q01DX001 (ip), vehicle: acetone 119 % of control | dose: 2.5 mg/kg/injection, schedule: Q01DX009 (ip), vehicle: saline 114 % of control

O=C(NCCc1ccccc1)C1CCN(CCc2ccccc2)CC1
inactive: [11] 107 % of control

CN(/N=C/c1ccccn1)C(N)=S
inactive: dose: 75.0 mg/kg/injection, schedule: Q01DX001 (ip), vehicle: carboxymethylcellulose (CMC) 96 % of control | dose: 150.0 mg/kg/injection, schedule: Q01DX001 (ip), vehicle: carboxymethylcellulose (CMC) 96 % of control | dose: 300.0 mg/kg/injection, schedule: Q01DX001 (ip), vehicle: carboxymethylcellulose (CMC) 97 % of control

CN(C)C(c1ccccc1)C(O)c1ccccc1 (stereo unspecified)
inactive: [1] 94 % of control and 98 % of control | [2] 97 % of control and 102 % of control | dose: 300.0 mg/kg/injection, schedule: Q01DX001 (ip), vehicle: saline 89 % of control and 96 % of control
